In paper PMC2890037 (Biochemistry, 2010):
Residue numbers refer to the chain shown, from its start.

What was measured:
Format in all cases: biochemical
[1] = target: T1, triosephosphate isomerase (TIM), wildtype yeast (Saccharomyces cerevisiae, UniProt P00942); experiment: steady-state kinetics of isomerization; conditions: read-out: Km ^b mM
T1 sequence (P00942 2-248): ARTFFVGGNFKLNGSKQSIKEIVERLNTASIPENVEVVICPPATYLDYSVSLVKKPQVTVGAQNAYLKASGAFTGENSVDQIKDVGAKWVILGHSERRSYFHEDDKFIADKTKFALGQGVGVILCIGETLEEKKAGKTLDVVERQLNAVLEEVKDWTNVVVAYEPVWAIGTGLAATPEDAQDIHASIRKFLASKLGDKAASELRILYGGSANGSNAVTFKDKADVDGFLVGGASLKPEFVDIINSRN

[2] = target: T2, triosephosphate isomerase (TIM), K12G mutant yeast (Saccharomyces cerevisiae, UniProt P00942, K12G)
T2 sequence (P00942 2-248 K12G): T1 sequence (P00942 2-248) with K11G

[3] = target: T1, triosephosphate isomerase (TIM), wildtype yeast

Row | Compound | Km [1] [mM] | Ki [2] [µM] | Ki [3] [µM]
1 | O=C[C@H](O)COP(=O)(O)O [GAP, (R)-glyceraldehyde 3-phosphate] | 1.1 ± 0.2 |  | 
2 | O=C(O)COP(=O)(O)O [PGA, 2-phosphoglycolate] |  | 1100 ± 200 | 19 ± 4
